Assays:
CDK4 = molecular target: T1, CDK4 (Homo sapiens, UniProt P11802); assay: luminescence kinase activity assay (BPS Bioscience CDK4/CyclinD3 kit #[…]); format: biochemical
T1 construct: purified recombinant CDK4/CyclinD3; with CyclinD3

CDK6 = molecular target: T2, CDK6 (Homo sapiens, UniProt Q00534); assay: luminescence kinase activity assay (BPS Bioscience CDK6/CyclinD3 kit #[…]); format: biochemical
T2 construct: purified recombinant CDK6/CyclinD3; with CyclinD3
T2 sequence (Q00534 whole entry): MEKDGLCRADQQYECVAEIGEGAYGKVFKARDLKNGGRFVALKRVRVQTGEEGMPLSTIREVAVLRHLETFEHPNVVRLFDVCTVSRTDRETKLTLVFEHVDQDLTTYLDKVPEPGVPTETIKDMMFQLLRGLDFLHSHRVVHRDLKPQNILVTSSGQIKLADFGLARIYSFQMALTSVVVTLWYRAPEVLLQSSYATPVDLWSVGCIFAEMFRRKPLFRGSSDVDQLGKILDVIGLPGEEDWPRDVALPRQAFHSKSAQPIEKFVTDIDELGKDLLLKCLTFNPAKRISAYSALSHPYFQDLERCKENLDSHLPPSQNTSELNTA
T2 sequence (P30281 whole entry partner): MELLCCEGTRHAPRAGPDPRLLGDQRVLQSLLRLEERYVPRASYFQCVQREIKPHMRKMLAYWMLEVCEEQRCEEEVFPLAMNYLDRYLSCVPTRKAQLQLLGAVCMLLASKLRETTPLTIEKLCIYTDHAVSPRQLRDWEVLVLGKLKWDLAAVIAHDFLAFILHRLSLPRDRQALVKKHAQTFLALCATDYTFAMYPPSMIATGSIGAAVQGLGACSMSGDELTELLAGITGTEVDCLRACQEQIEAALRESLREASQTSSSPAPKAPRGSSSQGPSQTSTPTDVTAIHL

T1 sequence (P11802 2-303): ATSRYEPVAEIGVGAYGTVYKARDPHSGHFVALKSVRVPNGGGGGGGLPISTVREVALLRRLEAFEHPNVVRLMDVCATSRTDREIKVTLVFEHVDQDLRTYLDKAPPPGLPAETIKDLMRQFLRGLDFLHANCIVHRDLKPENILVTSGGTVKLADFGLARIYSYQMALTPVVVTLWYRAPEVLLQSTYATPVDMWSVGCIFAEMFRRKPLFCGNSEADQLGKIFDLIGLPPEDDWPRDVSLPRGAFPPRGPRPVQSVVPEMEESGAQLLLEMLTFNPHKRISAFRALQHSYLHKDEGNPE
T1 sequence (P30281 whole entry partner): as the sequence (P30281 whole entry partner) above

CC(C)n1cnc2c(F)cc(-c3nc(Nc4ccc(CN5CCN(Cc6ccc(F)cc6)CC5)cn4)ncc3F)cc21 [NT431, 5-fluoro-4-(4-fluoro-1-isopropyl-1H-benzo[d]imidazol-6-yl)-N-(5-((4-(4-fluorobenzyl)piperazin-1-yl)methyl)pyridin-2-yl)pyrimidin-2-amine]
IC50 (CDK4): 23.7 nM
IC50 (CDK6): 47.1 nM

From publication PMC11241330, “Development of a Radiolabeled Cyclin-Dependent Kinases 4 and 6 (CDK4/6) Inhibitor for Brain and Cancer PET Imaging” (International Journal of Molecular Sciences, 2024)
